Reference: US11547735B2, “Composition for ameliorating psoriasis symptoms containing extract of Thalictrum squarrosum steph” (KOREA INSTITUTE OF SCIENCE AND TECHNOLOGY, priority 2020, dated 2023)

How the values were obtained:
[1] = test system: psoriasis caused by imiquimod; assay: Epithelial thickness of back skin by H&E staining in imiquimod psoriasis model; format: in vivo, Balb/c mice; settings: after treatment for a week, compared to the IMQ group
Description: (§1) 6-week-old male Balb/c mice (Kangwon Life Science, Korea) were purchased and acclimated for a week, and psoriasis was induced using 5% imiquimod (Donga ST, Korea). FIG. 1 is a schematic experimental scheme of an animal model. Anti-psoriatic efficacy was investigated using a total of 20 animal models including 5 animals per experimental group.
(§2) In order to determine the effect of the extract of Thalictrum squarrosum steph on psoriasis caused by imiquimod, the experimental animals of Section 2-1 were used. The following four experimental groups were constructed and five animals were randomly assigned to each group:
(§3) The experiment was conducted by inducing psoriasis with IMQ cream and then performing daily application in the amount shown in FIG. 2 to the experimental group and the DEX group. FIG. 3 is an image showing the treatment group for 7 days compared to the psoriasis-induced model as the animal experimental model.
After treatment for a week, the back skin tissue was removed from each animal, and then a paraffin block was prepared. The paraffin block was cut to 5 μm to prepare a slide sample, and then the change in the thickness of the skin tissue was measured through H&E staining.

[2] = test system: filaggrin, loricrin, keratin 1 and keratin 14; assay: Biomarkers for epithelial tissue damage in back skin by immunofluorescence; format: in vivo, Balb/c mice; settings: after treatment for a week, versus IMQ group
Description: as §1, §2, §3
After treatment for a week, back skin tissue was removed from each animal and a paraffin block was then prepared. A paraffin block was cut to 5 μm to prepare a slide sample, and then the change in biomarkers for epithelial tissue damage due to psoriasis was measured through immunofluorescence.

C[C@@H]1C[C@H]2[C@@H]3CCC4=CC(=O)C=C[C@]4(C)[C@@]3(F)[C@@H](O)C[C@]2(C)[C@@]1(O)C(=O)CO [DEX, dexamethasone]
thickness of the epithelial layer [1]: decreased thickness
expression level of filaggrin [2]: increased
expression level of keratin 1 [2]: increased
expression level of keratin 14 [2]: increased
expression level of loricrin [2]: increased
